The nature of data set [1]: Antiproliferative activity against human L02 cells assessed as inhibition of cell proliferation incubated for 72 hrs by MTT assay. The data set is classed as toxicity, cell-based. (Tetrazolium assays rely on reduction of a dye to a coloured formazan, in cell work by metabolically active cells.)
Data set [2] has as its system Hep 3B2. As to the kind of experiment: cells. The conditions noted are these: Homo sapiens, Hep3B, 72 h.
Description: Antiproliferative activity against human Hep3B cells assessed as inhibition of cell proliferation incubated for 72 hrs by MTT assay
Data set [3] concerns the target T1, Fibroblast growth factor receptor 1 (Homo sapiens, UniProt P11362). The experiment in a line: Inhibition of FGFR1 (unknown origin) incubated for 15 mins in presence of ATP.
Target sequence in this assay (P11362 whole entry): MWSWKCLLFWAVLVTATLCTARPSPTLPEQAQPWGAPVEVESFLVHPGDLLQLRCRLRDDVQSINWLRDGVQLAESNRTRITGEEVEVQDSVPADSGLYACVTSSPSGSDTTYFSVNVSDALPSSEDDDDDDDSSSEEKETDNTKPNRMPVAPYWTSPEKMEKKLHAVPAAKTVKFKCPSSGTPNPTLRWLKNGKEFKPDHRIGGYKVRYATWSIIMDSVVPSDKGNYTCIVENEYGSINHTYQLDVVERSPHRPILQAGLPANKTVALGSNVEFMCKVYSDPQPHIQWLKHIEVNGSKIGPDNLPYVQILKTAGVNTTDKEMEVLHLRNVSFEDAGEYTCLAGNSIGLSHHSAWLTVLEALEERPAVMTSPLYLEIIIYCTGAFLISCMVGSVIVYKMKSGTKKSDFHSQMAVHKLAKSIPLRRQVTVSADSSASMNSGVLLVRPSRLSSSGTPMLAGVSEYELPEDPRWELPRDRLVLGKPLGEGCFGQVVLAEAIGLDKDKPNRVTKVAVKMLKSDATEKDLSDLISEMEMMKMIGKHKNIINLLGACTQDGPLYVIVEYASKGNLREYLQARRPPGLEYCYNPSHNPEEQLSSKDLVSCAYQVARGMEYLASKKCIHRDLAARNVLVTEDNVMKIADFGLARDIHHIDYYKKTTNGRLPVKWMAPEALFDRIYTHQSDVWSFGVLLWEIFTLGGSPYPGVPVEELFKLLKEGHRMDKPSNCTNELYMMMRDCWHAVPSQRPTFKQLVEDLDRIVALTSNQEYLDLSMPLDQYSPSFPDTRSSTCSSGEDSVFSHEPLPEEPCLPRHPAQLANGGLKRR
Data set [4] has as its system Huh-7. As to the kind of experiment: cells. The settings on record: Homo sapiens, Huh-7, 72 h.
Description: Antiproliferative activity against human Huh-7 cells assessed as inhibition of cell proliferation incubated for 72 hrs by MTT assay
For the next data set, the system named is MDA-MB-231. As to the kind of experiment: cells. The conditions noted are these: Homo sapiens, MDA-MB-231, 72 h.
In data set [5] the test system is Hep 3B2. As to the kind of experiment: Induction of apoptosis in human Hep3B cells assessed as late apoptotic cells at 0.5 uM incubated for 48 hrs by annexin V-FITC/propidium iodide staining based flow cytometry analysis (reference value: 5.20%). Type of data set: functional. For orientation: In flow cytometry, cells or beads pass a laser one at a time.
The test system of data set [6] is Huh-7. As to the kind of experiment: Induction of apoptosis in human Huh-7 cells assessed as late apoptotic cells at 0.5 uM incubated for 48 hrs by annexin V-FITC/propidium iodide staining based flow cytometry analysis (reference value: 5.20%). The data set is classed as functional.
Data set [7] concerns Huh-7. The experiment in a line: Induction of apoptosis in human Huh-7 cells assessed as early apoptotic cells at 0.5 uM incubated for 48 hrs by annexin V-FITC/propidium iodide staining based flow cytometry analysis (reference value: 4.59%). The data set is classed as functional.
The subject of data set [8] is Huh-7. As to the kind of experiment: Induction of apoptosis in human Huh-7 cells assessed as viable cells at 0.5 uM incubated for 48 hrs by annexin V-FITC/propidium iodide staining based flow cytometry analysis (reference value: 84.91%). Type of data set: functional. The settings on record: read-out: Activity.
Data set [9] deals with Hep 3B2. The experiment in a line: Induction of apoptosis in human Hep3B cells assessed as viable cells at 0.5 uM incubated for 48 hrs by annexin V-FITC/propidium iodide staining based flow cytometry analysis (reference value: 84.91%). The settings on record: read-out: Activity. Type of data set: functional.
The test system of data set [10] is Hep 3B2. As to the kind of experiment: Induction of apoptosis in human Hep3B cells assessed as necrotic cells at 0.5 uM incubated for 48 hrs by annexin V-FITC/propidium iodide staining based flow cytometry analysis (reference value: 5.20%). The data set is classed as functional.
The subject of data set [11] is Huh-7. The experiment in a line: Induction of apoptosis in human Huh-7 cells assessed as necrotic cells at 0.5 uM incubated for 48 hrs by annexin V-FITC/propidium iodide staining based flow cytometry analysis (reference value: 5.20%). Type of data set: functional.
The subject of data set [12] is Hep 3B2. As to the kind of experiment: Induction of apoptosis in human Hep3B cells assessed as early apoptotic cells at 0.5 uM incubated for 48 hrs by annexin V-FITC/propidium iodide staining based flow cytometry analysis (reference value: 4.69%). The data set is classed as functional.
Data set [13] has as its target Fibroblast growth factor receptor 4 (Homo sapiens) (UniProt P22455). The settings on record: dose 100.0 nM.
Description: Inhibition of FGFR4 (unknown origin) at 100 nM incubated for 15 mins in presence of ATP relative to control
A short description of data set [14]: GSH reactivity in potassium phosphate buffer at pH 7.4 assessed as half life at 1 uM measured at 2 to 1440 mins by LC-MS/MS analysis. The settings on record: potassium phosphate buffer with GSH, time 2-1440 min. Type of data set: physicochemical.
Data set [15] deals with Huh-7. As to the kind of experiment: Antitumor activity against human Huh-7 cells xenografted in nude mouse assessed as tumor growth inhibition at 25 mg/kg, ip administered for 15 days. Type of data set: functional. The settings on record: Huh-7, 360 h, time 15 day, read-out: TGI. For orientation: Xenograft models place foreign cells or tissue in a host animal.
The target in data set [16] is T1, Fibroblast growth factor receptor 1. The settings on record: dose 100.0 nM.
Target sequence in this assay (P11362 22-822 limits assumed): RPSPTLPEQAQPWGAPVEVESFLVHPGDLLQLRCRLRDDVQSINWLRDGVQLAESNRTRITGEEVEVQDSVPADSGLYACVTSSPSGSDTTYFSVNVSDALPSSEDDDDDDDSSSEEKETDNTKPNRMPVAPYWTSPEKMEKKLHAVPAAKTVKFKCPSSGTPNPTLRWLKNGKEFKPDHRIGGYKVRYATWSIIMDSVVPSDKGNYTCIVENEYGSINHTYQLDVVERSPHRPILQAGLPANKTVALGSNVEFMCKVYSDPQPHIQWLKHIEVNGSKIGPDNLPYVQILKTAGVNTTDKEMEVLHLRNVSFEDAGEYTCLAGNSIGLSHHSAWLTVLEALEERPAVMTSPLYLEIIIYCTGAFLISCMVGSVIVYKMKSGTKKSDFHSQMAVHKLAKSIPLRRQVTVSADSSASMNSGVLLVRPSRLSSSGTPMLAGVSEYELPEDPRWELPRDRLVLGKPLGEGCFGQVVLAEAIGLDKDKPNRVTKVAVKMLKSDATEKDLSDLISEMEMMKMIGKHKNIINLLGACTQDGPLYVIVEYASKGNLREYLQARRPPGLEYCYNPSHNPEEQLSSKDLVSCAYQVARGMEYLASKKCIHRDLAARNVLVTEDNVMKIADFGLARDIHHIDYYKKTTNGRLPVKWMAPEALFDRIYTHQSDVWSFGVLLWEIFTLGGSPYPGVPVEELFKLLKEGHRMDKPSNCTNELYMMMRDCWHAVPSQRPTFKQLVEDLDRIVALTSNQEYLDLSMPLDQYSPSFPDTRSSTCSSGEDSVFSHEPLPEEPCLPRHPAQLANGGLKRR
Description: Inhibition of FGFR1 (unknown origin) at 100 nM incubated for 15 mins in presence of ATP relative to control
The target is the same in data set [17]. The settings on record: dose 10.0 nM.
Target sequence in this assay (P11362 22-822 limits assumed): as above
Description: Inhibition of FGFR1 (unknown origin) at 10 nM incubated for 15 mins in presence of ATP relative to control
Data set [18] concerns the target Fibroblast growth factor receptor 4 (Homo sapiens) (UniProt P22455). The conditions noted are these: dose 10.0 nM.
Description: Inhibition of FGFR4 (unknown origin) at 10 nM incubated for 15 mins in presence of ATP relative to control

Experimental findings from ChEMBL document CHEMBL6121004, “Design, synthesis, and biological evaluation of Ponatinib-based N-Phenylpyrimidine-2-amine derivatives as novel fibroblast growth factor receptor 4 (FGFR4) selective inhibitors” (Eur J Med Chem, 2025) are described below.

Each structure is given as a SMILES string. pIC50: −log10 of the molar value. Activity calls are given as the source filed them.

Fibroblast growth factor receptor 4 (Homo sapiens), sequence (P22455 22-802 limits assumed): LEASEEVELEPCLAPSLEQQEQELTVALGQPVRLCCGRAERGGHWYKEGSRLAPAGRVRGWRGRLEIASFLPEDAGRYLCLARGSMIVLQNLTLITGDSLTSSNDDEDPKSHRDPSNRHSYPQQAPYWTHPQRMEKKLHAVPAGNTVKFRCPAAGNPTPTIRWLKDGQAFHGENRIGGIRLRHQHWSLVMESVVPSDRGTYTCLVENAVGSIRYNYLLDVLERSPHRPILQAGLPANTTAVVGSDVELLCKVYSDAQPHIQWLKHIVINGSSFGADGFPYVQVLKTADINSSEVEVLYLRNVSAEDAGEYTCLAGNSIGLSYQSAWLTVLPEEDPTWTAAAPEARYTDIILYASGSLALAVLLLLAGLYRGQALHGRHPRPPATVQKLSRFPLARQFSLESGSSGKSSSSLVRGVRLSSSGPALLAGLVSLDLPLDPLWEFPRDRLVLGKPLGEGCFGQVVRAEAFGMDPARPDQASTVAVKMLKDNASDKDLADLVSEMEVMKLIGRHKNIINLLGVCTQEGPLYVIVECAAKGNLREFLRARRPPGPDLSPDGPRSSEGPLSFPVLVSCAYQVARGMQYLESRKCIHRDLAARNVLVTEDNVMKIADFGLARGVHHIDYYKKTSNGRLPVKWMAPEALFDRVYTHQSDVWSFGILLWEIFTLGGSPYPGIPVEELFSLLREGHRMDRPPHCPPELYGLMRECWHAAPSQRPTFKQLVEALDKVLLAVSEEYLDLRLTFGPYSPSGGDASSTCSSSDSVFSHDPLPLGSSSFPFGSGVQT
Description for MDA-MB-231: Antiproliferative activity against human MDA-MB-231 cells assessed as inhibition of cell proliferation incubated for 72 hrs by MTT assay

What is called IC50 is the concentration that gives 50% inhibition. The pIC50 is the negative decadic logarithm of the IC50, by convention in mol/L. As for `C=CC(=O)Nc1cccc(Cl)c1Nc1ncc(C#Cc2cc(C(=O)Nc3ccc(CN4CCN(C)CC4)c(C(F)(F)F)c3)ccc2C)cn1`, in data set [1], the 50% inhibitory concentration (IC50) at 72 h was greater than 10000 nM. Moreover, the negative-log IC50 (pIC50) in the data set on Hep 3B2 [2] is 6.06; in [3], less than 6.30; in the data set with Huh-7 [4], 6.39; in the data set on MDA-MB-231, 5.40.
Turning to `Cc1ccc(C(=O)Nc2ccc(CN3CCN(C)CC3)c(C(F)(F)F)c2)cc1C#Cc1cnc2cccnn12` [PONATINIB], the half-maximal inhibitory concentration (IC50) at 72 h in data set [1] is 180 nM. Moreover, the Activity in the data set with Hep 3B2 [5] was 20.3%; in the data set on Huh-7 [6], 18.5%; with Huh-7 [7], 2.74%; in the data set on Hep 3B2 [10] it was 6.56%; in the data set with Huh-7 [11], 3.28%; with Hep 3B2 [12], 5.14%. The viability at 0.5 µM is 75.5% with Huh-7 [8] and 68% in the data set with Hep 3B2 [9].
One may read the inhibition as the share of the control response that was lost under treatment. Regarding `CC(C)=CC(=O)Nc1cccc(C)c1Nc1ncc(C#Cc2cccc(C(=O)Nc3ccc(CN4CCN(C)CC4)c(C(F)(F)F)c3)c2)cn1`, the inhibition in data set [13] is less than 10%.
One may read the half-life as the time needed for the level to fall by half in the phase considered. `C=CC(=O)Nc1cccc(C)c1Nc1ncc2cc(-c3c(Cl)c(OC)cc(OC)c3Cl)ccc2n1`: the IC50 at 72 h in data set [1] was greater than 10000 nM. Moreover, the pIC50 in the data set with Hep 3B2 [2] was 6.09; in [3], 6.25; in the data set with Huh-7 [4], 6.31; in the data set with MDA-MB-231, 5.37. Further, in [14], the half-life at 1 µM was 60.1 min. Further, the inhibition in vivo at 25 mg/kg in the data set with Huh-7 [15] came out at 61.8%.
For `CN(C)C/C=C/C(=O)Nc1cc2c(Nc3ccc(F)c(Cl)c3)ncnc2cc1O[C@H]1CCOC1` [AFATINIB], the half-life at 1 µM in data set [14] stood at 30.1 min.
On to `C/C=C/C(=O)Nc1cccc(C)c1Nc1ncc(C#Cc2cc(C(=O)Nc3ccc(CN4CCN(C)CC4)c(C(F)(F)F)c3)ccc2C)cn1`, for which the inhibition entry in [16] and in data set [17] was “inactive” each time.
For `C=CC(=O)Nc1ccccc1Nc1ncc(C#Cc2cc(C(=O)Nc3ccc(CN4CCN(C)CC4)c(C(F)(F)F)c3)ccc2C)cn1`, the IC50 at 72 h in [1] is greater than 10000 nM. The pIC50 was 6.11 in the data set on Hep 3B2 [2], 6.17 in the data set on Huh-7 [4] and 5.65 in the data set on MDA-MB-231.
Regarding `C=CC(=O)Nc1cccc(C)c1Nc1ccc(C#Cc2cc(C(=O)Nc3ccc(CN4CCN(C)CC4)c(C(F)(F)F)c3)ccc2C)cn1`, the half-inhibitory concentration (IC50) at 72 h in data set [1] was greater than 10000 nM. The pIC50 in the data set on Hep 3B2 [2] was 6.18; in data set [3], less than 6.30; in the data set on Huh-7 [4] it was 6.28; in the data set with MDA-MB-231, 5.45.
In the case of `Cc1ccc(C(=O)Nc2ccc(CN3CCN(C)CC3)c(C(F)(F)F)c2)cc1C#Cc1cnc(Nc2c(C)cccc2NC(=O)/C=C/CN(C)C)nc1`, the IC50 at 72 h in data set [1] was greater than 10000 nM. The pIC50 is 6.04 in the data set with Hep 3B2 [2], 6.06 in data set [3], 5.79 in the data set on Huh-7 [4] and 5.90 in the data set on MDA-MB-231.
On to `Cc1ccc(C(=O)Nc2ccc(C(=O)N3CCN(C)CC3)c(C)c2)cc1C#Cc1cnc(Nc2c(C)cccc2NC(=O)/C=C/CN(C)C)nc1`, for which the inhibition entry in data set [18], in [16] and in [13] was “inactive” each time. For the same compound, the inhibition in [17] is 0.6%.
For `Cc1ccc(C(=O)Nc2ccc(C(=O)N3CCN(C)CC3)c(C(F)(F)F)c2)cc1C#Cc1cnc(Nc2c(C)cccc2NC(=O)/C=C/CN(C)C)nc1`, the inhibition result in [18], in data set [16] and in data set [13] was “inactive” in each case. Moreover, the inhibition in data set [17] was 2.2%.
For the compound `Cc1ccc(C(=O)Nc2ccc(CN3CCN(C)CC3)c(C(F)(F)F)c2)cc1C#Cc1cnc(Nc2c(C)cccc2NC(=O)CCl)nc1`, the inhibition entry in data set [16] is “inactive”. The inhibition in [17] was determined as 0.2%.
As for `C=CC(=O)Nc1cccc(C)c1Nc1ncc(C#Cc2ccc(C)c(C(=O)Nc3ccc(CN4CCN(C)CC4)c(C(F)(F)F)c3)c2)cn1`, the inhibition entry in data set [16] was “inactive”. The same compound gave an inhibition in data set [17] of 0.3%.
For the compound `C=CC(=O)Nc1cccc(C)c1Nc1ncc(C#Cc2cc(C(=O)Nc3ccc(CN4CCN(C)CC4)c(C(F)(F)F)c3)ccc2C)cn1`, in data set [1], the IC50 at 72 h was greater than 10000 nM. Further, the pIC50 in the data set with Hep 3B2 [2] was 6.37; with Huh-7 [4], 5.79; in the data set on MDA-MB-231, 5.36.
